From patent US20170175161A1, “RAPID DETERMINATION OF BACTERIAL SUSCEPTIBILITY TO AN […] THE POINT OF CARE” (Point of Care Diagnostics, LLC, priority 2014, published 2017)

System: bacterial infection within the sample (sample 101, e.g. urine)
Assay: assay 200: antibiotic susceptibility of a bacterial infection by ATP bioluminescence
Assay type: cell-based
Description: To perform assay 200 to determine antibiotic susceptibility of a bacterial infection within the sample, a second test sample 204 and third test sample 205 may be obtained from sample 101 by applying 50 to 400 μL of first reagent 202 and 50 to 300 μL of culture medium 203 to 1 to 20 μL of sample 101 to create second test sample 204 and to 1 to 20 μL of sample 101 to create third test sample 205. First reagent 202 may include 10 to 100 mM of Tris Acetate as a buffer, 0.0001 to 0.1% of Benzethonium Chloride, and 0.5 to 4 Units/ml of Apyrase. First reagent 202 may cause non-bacterial ATP to be released and removed, in a manner similar to that as described herein. Culture medium 203 may include 50 to 300 μL of Tryptic Soy Broth. Culture medium 203 may be applied to second test sample 204 and third test sample 205 and may promote the growth and robustness of the bacterial population, in a manner similar to that described herein.
First antibiotic 206 may be applied to third test sample 205. In this example, first antibiotic 206 may include 10 to 100 μg of Amoxicillin. Second test sample 204 and the third test sample 205 may then be incubated for ˜40 minutes at 37 degrees Celsius.
After incubation, second reagent 207 (e.g., 100 to 500 μL) may be applied to second test sample 204 and third test sample 205. Second reagent 207 may include 10 to 100 mM of Tris Acetate as a buffer and 2 to 30 mg/L of Luciferase, 2 to 30 mg/L of Luciferin, and 0.1 to 0.5% of Chlorhexidine di-gluconate. […]
A Berthold Junior Luminometer may be used to measure a first bioluminescent signal (and associated strength) from third test sample 205 and a second bioluminescent signal (and associated strength) from second test sample 204 (e.g., based on released ATP, etc.). In a manner similar to that described above, the strength associated with the first bioluminescent signal and/or the strength associated with the second bioluminescent signal may be proportional to the respective quantity and/or concentration of ATP and/or quantity of bacterial cells within third test sample 205 and/or second test sample 204, respectively. […] In this example, the strength of the first bioluminescent signal was measured to be 66,823 RLU's and the strength of the second bioluminescent signal was measured to be 62,535 RLU's. Thus, the quantity of bacteria cells in third test sample 205 was ˜62,000 cfu/ml and the quantity of bacteria cells in the second test sample 204 was ˜67,000 cfu/ml.
In the event that the bacteria, within third test sample 205, are susceptible to first antibiotic 206, the quantity of bacterial cells in third test sample 205 may be less than the quantity of bacterial cells in second test sample 204. […]

CC1(C)S[C@@H]2[C@H](NC(=O)[C@H](N)c3ccc(O)cc3)C(=O)N2[C@H]1C(=O)O [Amoxicillin]
susceptibility of the bacteria to the antibiotic (10-100 μg, ΔL compared to second threshold >30% difference): may not be susceptible
strength of the first bioluminescent signal (third test sample 205, with antibiotic) (10 to 100 μg antibiotic, incubated ~40 minutes at 37 degrees Celsius, Berthold Junior Luminometer, baseline second test sample 62,535 RLU's): 66,823 RLU's
quantity of bacteria cells in third test sample 205 (10 to 100 μg antibiotic, ~40 minutes at 37 degrees Celsius, baseline second test sample ~67,000 cfu/ml): ~62,000 cfu/ml
ΔL, difference between first and second bioluminescent signal strength (antibiotic-treated vs baseline sample, second threshold >30% difference): 7.5%
